Data as given in US12552775B2, “Compounds and uses thereof” (Foghorn Therapeutics Inc., priority 2020, dated 2026).

What was measured:
HiBit-BRM fusion protein = biological target: T1, HiBit-BRM fusion protein (Homo sapiens, UniProt P51531); experiment: HiBiT-BRM cell-based degradation assay (Nano-Glo HiBiT Lytic Detection, 24 h); conditions: stable HeLa cell line expressing HiBiT-BRM, top dose 30 μM
T1 construct: expressed in transfected cells
Protocol: (§1) Procedure: A stable HeLa cell line expressing HiBiT-BRM was generated. On day 0, 5000 cells were seeded in 40 μL of media into each well of 384-well cell culture plates. On day 1, cells were treated with 120 nL DMSO or 120 nL of 3-fold serially DMSO-diluted compounds (10 points in duplicate with 30 μM as final top dose). Subsequently plates were incubated for 24 h in a standard tissue culture incubator and equilibrated at room temperature for 15 minutes. Nano-Glo HiBiT Lytic Detection System (Promega N3050) reagent was freshly prepared and 20 ul was added to each well. Upon addition of this LgBit-containing reagent, the HiBiT and LgBiT proteins associate to form the luminescent NanoBiT luciferase. The plates were shaken for 10 minutes at room temperature and the bioluminescence read using an EnVision plate reader (PerkinElmer).
(§2) The degradation % was calculated using the following formula: % degradation=100%−100%×(Lumsample−LumLC)/(LumHC−LumLC). DMSO treated cells are employed as High Control (HC) and 2 μM of a known BRM/BRG1 degrader standard treated cells are employed as Low Control (LC).

[1] = biological target: T2, HiBit-BRG1 fusion protein (Homo sapiens, UniProt P51532); experiment: HiBiT-BRG1 cell-based degradation assay (Nano-Glo HiBiT Lytic Detection, 24 h); conditions: stable HeLa cell line expressing HiBit-BRG1 and LgBit, top dose 30 μM, read-out: BRG1 HiBit Degradation Maximum (%)
T2 construct: expressed in transfected cells
Protocol: as §1
For measurement of BRG1 degradation, a stable HeLa cell line expressing HiBit-BRG1 and LgBit was generated. The same protocol as above was then followed.
as §2

T2 sequence (P51532 whole entry, the tested form may be a part): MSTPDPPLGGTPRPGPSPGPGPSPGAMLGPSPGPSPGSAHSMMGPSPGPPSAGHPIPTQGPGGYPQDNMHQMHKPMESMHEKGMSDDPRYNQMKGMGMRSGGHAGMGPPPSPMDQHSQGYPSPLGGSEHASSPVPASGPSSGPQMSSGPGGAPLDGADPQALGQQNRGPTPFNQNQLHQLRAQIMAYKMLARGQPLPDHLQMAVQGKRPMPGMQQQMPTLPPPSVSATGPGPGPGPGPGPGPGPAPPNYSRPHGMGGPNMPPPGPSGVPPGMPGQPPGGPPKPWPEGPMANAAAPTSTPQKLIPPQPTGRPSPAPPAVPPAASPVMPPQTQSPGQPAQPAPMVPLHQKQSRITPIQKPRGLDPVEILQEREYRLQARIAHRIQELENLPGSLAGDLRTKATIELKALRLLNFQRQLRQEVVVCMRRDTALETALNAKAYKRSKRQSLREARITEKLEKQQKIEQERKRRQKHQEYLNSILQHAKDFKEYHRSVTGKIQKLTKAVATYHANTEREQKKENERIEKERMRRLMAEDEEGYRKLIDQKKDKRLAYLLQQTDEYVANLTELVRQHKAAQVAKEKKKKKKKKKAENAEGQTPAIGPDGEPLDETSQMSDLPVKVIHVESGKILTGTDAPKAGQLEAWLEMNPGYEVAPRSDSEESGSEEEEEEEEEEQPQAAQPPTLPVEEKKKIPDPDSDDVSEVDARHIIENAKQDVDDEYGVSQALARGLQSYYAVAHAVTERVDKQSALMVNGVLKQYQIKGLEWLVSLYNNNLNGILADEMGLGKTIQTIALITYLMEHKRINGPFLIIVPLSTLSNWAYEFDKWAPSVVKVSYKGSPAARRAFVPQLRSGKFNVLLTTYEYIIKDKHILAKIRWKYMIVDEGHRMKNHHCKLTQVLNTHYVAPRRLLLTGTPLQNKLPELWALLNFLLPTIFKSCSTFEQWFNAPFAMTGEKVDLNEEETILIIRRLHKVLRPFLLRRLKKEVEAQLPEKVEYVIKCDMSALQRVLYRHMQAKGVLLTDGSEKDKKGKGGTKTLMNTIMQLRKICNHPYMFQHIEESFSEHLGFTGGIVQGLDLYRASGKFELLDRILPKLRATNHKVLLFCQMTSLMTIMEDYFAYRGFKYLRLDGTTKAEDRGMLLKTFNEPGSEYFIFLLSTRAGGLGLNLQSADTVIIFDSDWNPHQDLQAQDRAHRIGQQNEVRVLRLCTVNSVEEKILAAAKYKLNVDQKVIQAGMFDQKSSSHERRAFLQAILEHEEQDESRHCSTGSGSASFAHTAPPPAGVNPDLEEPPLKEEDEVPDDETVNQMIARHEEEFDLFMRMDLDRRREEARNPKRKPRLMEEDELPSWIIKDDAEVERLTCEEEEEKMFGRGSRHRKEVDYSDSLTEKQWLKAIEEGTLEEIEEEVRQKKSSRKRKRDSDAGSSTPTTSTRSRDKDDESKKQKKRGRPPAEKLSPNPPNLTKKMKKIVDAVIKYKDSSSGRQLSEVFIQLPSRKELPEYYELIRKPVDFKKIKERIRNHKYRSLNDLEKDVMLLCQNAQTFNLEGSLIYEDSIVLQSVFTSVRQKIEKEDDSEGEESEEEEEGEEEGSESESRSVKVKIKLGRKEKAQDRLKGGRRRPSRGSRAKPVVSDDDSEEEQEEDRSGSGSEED
T1 sequence (P51531 whole entry, the tested form may be a part): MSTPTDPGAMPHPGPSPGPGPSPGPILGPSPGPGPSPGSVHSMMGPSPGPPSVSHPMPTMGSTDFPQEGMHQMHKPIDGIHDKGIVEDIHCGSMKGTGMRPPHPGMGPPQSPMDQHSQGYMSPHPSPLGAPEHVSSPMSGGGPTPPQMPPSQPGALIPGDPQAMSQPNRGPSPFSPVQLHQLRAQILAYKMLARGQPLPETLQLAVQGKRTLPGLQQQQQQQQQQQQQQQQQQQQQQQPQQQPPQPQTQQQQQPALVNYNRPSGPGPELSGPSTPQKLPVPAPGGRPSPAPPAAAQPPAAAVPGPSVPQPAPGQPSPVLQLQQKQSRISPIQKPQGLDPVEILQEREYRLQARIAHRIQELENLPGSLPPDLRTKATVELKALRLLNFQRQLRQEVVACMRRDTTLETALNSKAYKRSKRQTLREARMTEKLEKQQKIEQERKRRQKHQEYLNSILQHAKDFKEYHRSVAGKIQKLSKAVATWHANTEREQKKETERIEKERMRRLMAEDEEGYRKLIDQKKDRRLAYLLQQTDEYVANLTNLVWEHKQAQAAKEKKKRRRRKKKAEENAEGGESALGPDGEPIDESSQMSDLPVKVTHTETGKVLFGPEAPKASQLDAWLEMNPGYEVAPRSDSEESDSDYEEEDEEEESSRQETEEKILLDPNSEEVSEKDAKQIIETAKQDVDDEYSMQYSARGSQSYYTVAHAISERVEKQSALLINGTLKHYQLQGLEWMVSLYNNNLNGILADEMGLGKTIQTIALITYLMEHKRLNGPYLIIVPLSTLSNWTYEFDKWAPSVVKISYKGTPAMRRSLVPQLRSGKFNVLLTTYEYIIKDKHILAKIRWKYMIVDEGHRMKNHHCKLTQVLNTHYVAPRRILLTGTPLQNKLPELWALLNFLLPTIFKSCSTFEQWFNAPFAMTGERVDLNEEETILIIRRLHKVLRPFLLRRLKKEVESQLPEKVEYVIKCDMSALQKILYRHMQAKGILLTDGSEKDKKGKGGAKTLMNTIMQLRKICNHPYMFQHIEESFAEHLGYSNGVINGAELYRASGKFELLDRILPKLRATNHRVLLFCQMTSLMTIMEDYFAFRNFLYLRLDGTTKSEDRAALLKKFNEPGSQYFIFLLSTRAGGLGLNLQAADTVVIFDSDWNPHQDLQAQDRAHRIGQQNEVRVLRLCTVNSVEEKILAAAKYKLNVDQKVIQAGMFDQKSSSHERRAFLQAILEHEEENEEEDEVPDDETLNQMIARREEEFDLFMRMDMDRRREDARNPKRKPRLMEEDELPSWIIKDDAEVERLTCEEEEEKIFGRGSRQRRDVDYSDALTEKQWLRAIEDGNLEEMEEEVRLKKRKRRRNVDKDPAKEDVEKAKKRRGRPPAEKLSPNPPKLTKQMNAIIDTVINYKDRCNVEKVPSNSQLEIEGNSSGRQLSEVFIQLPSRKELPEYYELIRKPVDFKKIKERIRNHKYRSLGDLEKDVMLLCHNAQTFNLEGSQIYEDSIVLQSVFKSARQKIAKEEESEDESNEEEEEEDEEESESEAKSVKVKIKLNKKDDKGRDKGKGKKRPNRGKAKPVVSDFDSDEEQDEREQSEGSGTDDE

Dmax [1] [%]	Compound	BRM HiBit Degradation Maximum (%) (HiBit-BRM fusion protein)
< 50	Cc1ncsc1-c1ccc(CNC(=O)[C@@H]2C[C@@H](O)CN2C(=O)[C@@H](NC(=O)CCCCC(=O)NCC23CC(COc4cc(-c5ccccc5O)nnc4N)(C2)C3)C(C)(C)C)cc1 [Compound 35, N1-((3-(((3-amino-6-(2-hydroxyphenyl)pyridazin-4-yl)oxy)methyl)bicyclo[1.1.1]pentan-1-yl)methyl)-N6-((S)-1-((2S,4R)-4-hydroxy-2-((4-(4-methylthiazol-5-yl)benzyl)carbamoyl)pyrrolidin-1-yl)-3,3-dimethyl-1-oxobutan-2-yl)adipamide]	C (“C” indicates maximum degradation < 50%)
< 50	Cc1ncsc1-c1ccc(CNC(=O)[C@@H]2C[C@@H](O)CN2C(=O)[C@@H](NC(=O)CCCC(=O)NCC23CC(COc4cc(-c5ccccc5O)nnc4N)(C2)C3)C(C)(C)C)cc1 [Compound 37, N1-((3-(((3-amino-6-(2-hydroxyphenyl)pyridazin-4-yl)oxy)methyl)bicyclo[1.1.1]pentan-1-yl)methyl)-N5-((S)-1-((2S,4R)-4-hydroxy-2-((4-(4-methylthiazol-5-yl)benzyl)carbamoyl)pyrrolidin-1-yl)-3,3-dimethyl-1-oxobutan-2-yl)glutaramide]	C (“C” indicates maximum degradation < 50%)
< 50	Cc1ncsc1-c1ccc(CNC(=O)[C@@H]2C[C@@H](O)CN2C(=O)[C@@H](NC(=O)CCCCCCCCCCC(=O)NCC23CC(COc4cc(-c5ccccc5O)nnc4N)(C2)C3)C(C)(C)C)cc1 [Compound 38, N1-((3-(((3-amino-6-(2-hydroxyphenyl)pyridazin-4-yl)oxy)methyl)bicyclo[1.1.1]pentan-1-yl)methyl)-N12-((S)-1-((2S,4R)-4-hydroxy-2-((4-(4-methylthiazol-5-yl)benzyl)carbamoyl)pyrrolidin-1-yl)-3,3-dimethyl-1-oxobutan-2-yl)dodecanediamide]	B (“B” indicates maximum degradation ≥ 50%)
< 50	Cc1ncsc1-c1ccc(CNC(=O)[C@@H]2C[C@@H](O)CN2C(=O)[C@@H](NC(=O)CCCCCCCCCC(=O)NCC23CC(COc4cc(-c5ccccc5O)nnc4N)(C2)C3)C(C)(C)C)cc1 [Compound 39, N1-((3-(((3-amino-6-(2-hydroxyphenyl)pyridazin-4-yl)oxy)methyl)bicyclo[1.1.1]pentan-1-yl)methyl)-N11-((S)-1-((2S,4R)-4-hydroxy-2-((4-(4-methylthiazol-5-yl)benzyl)carbamoyl)pyrrolidin-1-yl)-3,3-dimethyl-1-oxobutan-2-yl)undecanediamide]	B (“B” indicates maximum degradation ≥ 50%)
< 50	Cc1ncsc1-c1ccc(CNC(=O)[C@@H]2C[C@@H](O)CN2C(=O)[C@@H](NC(=O)CCC(=O)NC23CC(CCOc4cc(-c5ccccc5O)nnc4N)(C2)C3)C(C)(C)C)cc1 [Compound 42, N1-(3-(2-((3-amino-6-(2-hydroxyphenyl)pyridazin-4-yl)oxy)ethyl)bicyclo[1.1.1]pentan-1-yl)-N4-((S)-1-((2S,4R)-4-hydroxy-2-((4-(4-methylthiazol-5-yl)benzyl)carbamoyl)pyrrolidin-1-yl)-3,3-dimethyl-1-oxobutan-2-yl)succinamide]	C (“C” indicates maximum degradation < 50%)
> 75	Cc1ncsc1-c1ccc(CNC(=O)[C@@H]2C[C@@H](O)CN2C(=O)[C@@H](NC(=O)CCCCC(=O)NC23CC(CCOc4cc(-c5ccccc5O)nnc4N)(C2)C3)C(C)(C)C)cc1 [Compound 43, N1-(3-(2-((3-amino-6-(2-hydroxyphenyl)pyridazin-4-yl)oxy)ethyl)bicyclo[1.1.1]pentan-1-yl)-N6-((S)-1-((2S,4R)-4-hydroxy-2-((4-(4-methylthiazol-5-yl)benzyl)carbamoyl)pyrrolidin-1-yl)-3,3-dimethyl-1-oxobutan-2-yl)adipamide]	A (“A” indicates maximum degradation ≥ 75%)
< 50	Cc1ncsc1-c1ccc(CNC(=O)[C@@H]2C[C@@H](O)CN2C(=O)[C@@H](NC(=O)CCCCCCCC(=O)NC23CC(CCOc4cc(-c5ccccc5O)nnc4N)(C2)C3)C(C)(C)C)cc1 [Compound 44, N1-(3-(2-((3-amino-6-(2-hydroxyphenyl)pyridazin-4-yl)oxy)ethyl)bicyclo[1.1.1]pentan-1-yl)-N9-((S)-1-((2S,4R)-4-hydroxy-2-((4-(4-methylthiazol-5-yl)benzyl)carbamoyl)pyrrolidin-1-yl)-3,3-dimethyl-1-oxobutan-2-yl)nonanediamide]	B (“B” indicates maximum degradation ≥ 50%)
< 50	Cc1ncsc1-c1ccc(CNC(=O)[C@@H]2C[C@@H](O)CN2C(=O)[C@@H](NC(=O)COCCOCCOCCOCC(=O)NC23CC(CCOc4cc(-c5ccccc5O)nnc4N)(C2)C3)C(C)(C)C)cc1 [Compound 45, N1-(3-(2-((3-amino-6-(2-hydroxyphenyl)pyridazin-4-yl)oxy)ethyl)bicyclo[1.1.1]pentan-1-yl)-N14-((S)-1-((2S,4R)-4-hydroxy-2-((4-(4-methylthiazol-5-yl)benzyl)carbamoyl)pyrrolidin-1-yl)-3,3-dimethyl-1-oxobutan-2-yl)-3,6,9,12-tetraoxatetradecanediamide]	B (“B” indicates maximum degradation ≥ 50%)

Continued, compound first:

Compound	Dmax [1] [%]	BRM HiBit Degradation Maximum (%) (HiBit-BRM fusion protein)
Nc1nnc(-c2ccccc2O)cc1OCCC12CC(NC(=O)C3CCN(CCOc4ccc5c(c4)C(=O)N(C4CCC(=O)NC4=O)C5=O)CC3)(C1)C2 (stereo not shown) [Compound 32, N-(3-(2-((3-amino-6-(2-hydroxyphenyl)pyridazin-4-yl)oxy)ethyl)bicyclo[1.1.1]pentan-1-yl)-1-(2-((2-(2,6-dioxopiperidin-3-yl)-1,3-dioxoisoindolin-5-yl)oxy)ethyl)piperidine-4-carboxamide]	< 50	B (“B” indicates maximum degradation ≥ 50%)
Nc1nnc(-c2ccccc2O)cc1OCCC12CC(NC(=O)CCN3CCN(c4ccc5c(c4)C(=O)N(C4CCC(=O)NC4=O)C5=O)CC3)(C1)C2 (stereo not shown) [Compound 33, N-(3-(2-((3-amino-6-(2-hydroxyphenyl)pyridazin-4-yl)oxy)ethyl)bicyclo[1.1.1]pentan-1-yl)-3-(4-(2-(2,6-dioxopiperidin-3-yl)-1,3-dioxoisoindolin-5-yl)piperazin-1-yl)propanamide]	< 50	C (“C” indicates maximum degradation < 50%)
Nc1nnc(-c2ccccc2O)cc1OCCC12CC(NC(=O)CCN3CC4(C3)CN(c3ccc5c(c3)C(=O)N(C3CCC(=O)NC3=O)C5=O)C4)(C1)C2 (stereo not shown) [Compound 34, N-(3-(2-((3-amino-6-(2-hydroxyphenyl)pyridazin-4-yl)oxy)ethyl)bicyclo[1.1.1]pentan-1-yl)-3-(6-(2-(2,6-dioxopiperidin-3-yl)-1,3-dioxoisoindolin-5-yl)-2,6-diazaspiro[3.3]heptan-2-yl)propanamide]	< 50	C (“C” indicates maximum degradation < 50%)
Cc1ncsc1-c1ccc(CNC(=O)[C@@H]2C[C@@H](O)CN2C(=O)[C@@H](NC(=O)COCCOCCOCCOCC(=O)NCC23CC(COc4cc(-c5ccccc5O)nnc4N)(C2)C3)C(C)(C)C)cc1 [Compound 36, N1-((3-(((3-amino-6-(2-hydroxyphenyl)pyridazin-4-yl)oxy)methyl)bicyclo[1.1.1]pentan-1-yl)methyl)-N14-((S)-1-((2S,4R)-4-hydroxy-2-((4-(4-methylthiazol-5-yl)benzyl)carbamoyl)pyrrolidin-1-yl)-3,3-dimethyl-1-oxobutan-2-yl)-3,6,9,12-tetraoxatetradecanediamide]	< 50	C (“C” indicates maximum degradation < 50%)
Cc1ncsc1-c1ccc(CNC(=O)[C@@H]2C[C@@H](O)CN2C(=O)[C@@H](NC(=O)CCCCCCCCCCCCC(=O)NCC23CC(COc4cc(-c5ccccc5O)nnc4N)(C2)C3)C(C)(C)C)cc1 [Compound 40, N1-((3-(((3-amino-6-(2-hydroxyphenyl)pyridazin-4-yl)oxy)methyl)bicyclo[1.1.1]pentan-1-yl)methyl)-N14-((S)-1-((2S,4R)-4-hydroxy-2-((4-(4-methylthiazol-5-yl)benzyl)carbamoyl)pyrrolidin-1-yl)-3,3-dimethyl-1-oxobutan-2-yl)tetradecanediamide]	< 50	B (“B” indicates maximum degradation ≥ 50%)
Cc1ncsc1-c1ccc(CNC(=O)[C@@H]2C[C@@H](O)CN2C(=O)[C@@H](NC(=O)CCCCCCCCCCCCCCC(=O)NCC23CC(COc4cc(-c5ccccc5O)nnc4N)(C2)C3)C(C)(C)C)cc1 [Compound 41, N1-((3-(((3-amino-6-(2-hydroxyphenyl)pyridazin-4-yl)oxy)methyl)bicyclo[1.1.1]pentan-1-yl)methyl)-N16-((S)-1-((2S,4R)-4-hydroxy-2-((4-(4-methylthiazol-5-yl)benzyl)carbamoyl)pyrrolidin-1-yl)-3,3-dimethyl-1-oxobutan-2-yl)hexadecanediamide]	< 50	B (“B” indicates maximum degradation ≥ 50%)
